In paper PMC3546527 (MedChemComm, 2012):

Target: HK853 (Thermotoga maritima, UniProt Q9WZV7)
Test: STD-NMR
Type: binding

- f STD ^a: 73.3
Structure (SMILES): Nc1ncnc2c1ncn2[C@@H]1O[C@H](COP(=O)(O)OP(=O)(O)O)[C@@H](O)[C@H]1O [ADP]
